Series [1] has as its system IFNγ induced CXCL10 secretion. The series is described as follows: Inhibition of IFNγ induced CXCL10 in human 3D airway cultures. The format is cell-based. The settings on record: 192 h, 8 days, 4 donors. The method, then: (§1) EpiAirway tissue cultures were obtained from Mattek (AIR-100). Cultures were derived from asthmatic donors. In a cell culture insert, human derived tracheal/bronchial epithelial cells were grown and differentiated on a porous membrane support, allowing an air-liquid interface with warmed culture medium below the cells and a gaseous test atmosphere above. Tissues were cultured in maintenance media ([…]) in a 37° C., 5% CO2 humidified incubator. Four donors were tested. On Day 0, tissue cultures were treated with test compounds in liquid interface at 10 μM, 1 μM and/or 0.1 μM. Compounds were diluted in dimethyl sulfoxide (DMSO, Sigma) to a final concentration of 0.1%. DMSO at 0.1% was used as a vehicle control. […] Tissue cultures were maintained for 8 days. Media was replaced every 2 days with fresh media containing compounds and IFNγ or IL-27. On Day 8, tissue cultures and supernatants were collected for analysis. Supernatant samples were assayed for CXCL10 (IP-10) and CXCL9 (MIG) using luminex analysis (EMD Millipore). Data is expressed as % Inhibition+/-standard deviation (±STDV). Percent inhibition was determined by compound inhibitory potency against IFNγ or IL-27 induced CXCL10 or CXCL9 secretion compared to vehicle treated cells. Data is the average from 4 donors.

Series [2] in a line: Lung and plasma drug concentration in the IL-13 pSTAT6 mouse model. The format is in vivo. The settings on record: lung to plasma ratio at 5 hours. The method, then: Adult Balb/c mice from Harlan were used in the assay. […] Animals were placed in lateral recumbency post dose and monitored for full recovery from anesthesia before being returned to their home cage. Four hours later, animals were once again briefly anesthetized and challenged with either vehicle or IL-13 (0.03 μg total dose delivered, 50 μL total volume) via oral aspiration before being monitored for recovery from anesthesia and returned to their home cage. One hour after vehicle or IL-13 administration, whole blood and lungs were collected for both pSTAT6 detection in lung homogenates using a Perkin Elmer AlphaLISA® SureFire® Ultra™ HV p-STAT6 (Tyr641) assay kit and for total drug concentration analysis in both lung and plasma. Blood samples were centrifuged (Eppendorf centrifuge, 5804R) for 4 minutes at approximately 12,000 rpm at 4° C. to collect plasma. […] Plasma and lung levels of test compound were determined by LC-MS analysis against analytical standards constructed into a standard curve in the test matrix. A lung to plasma ratio was determined as the ratio of the lung concentration in ng/g to the plasma concentration in ng/mL at 5 hours.

Series [3] has as its system IFNγ secretion in mixed lymphocyte reaction. Briefly: Inhibition of IFNγ secretion in a mixed lymphocyte reaction assay. The format is cell-based, human. The method, then:
The mixed lymphocyte reaction assay is an in-vitro assay that mimics transplant rejection. T cells from one donor are cultured with allogeneic dendritic cells from another donor. This reaction induces a cellular immune response such as IFNγ secretion. CD14+ monocytes were isolated from human whole blood (Stanford blood center) of donor A using a ficoll gradient and magnetic seperation (CD14 microbeads, Miltenyi). […] Cells were harvested, washed with media, re-suspended to 400,000 cells/ml in media and plated at 10,000 cells/well/25 μl. CD4+ T cells were freshly isolated from human whole blood (Stanford blood center) of donor B using a ficoll gradient and magnetic separation (CD4+ T cell isolation kit, Miltenyi). T cells were re-susepended to 4,000,000 cells/ml in RPMI (Life Technologies) supplemented with 10% Fetal Bovine Serum (FBS, Life Technologies), 2 mM Glutamax (Life Technologies), 25 mM HEPES (Life Technologies) and 1× Pen/Strep (Life Technologies). CD4+ T cells were mixed with the dendritic cells at 100,000 cells/well/25 μl. Cells were treated with test compounds (50 μl at 20 μM, 2 μM and/or 0.2 μM) to a final concentration of 10 μM, 1 μM and/or 0.1 μM. Compounds were diluted in dimethyl sulfoxide (DMSO, Sigma) to a final concentration of 0.1%. DMSO at 0.1% was used as a vehicle control. Cells were maintained for 5 days in a 37° C., 5% CO2 humidified incubator. On day 5, supernatants were collected and measured for interferon gamma (INFγ) using enzyme linked immunosorbent assay (ELISA). Percent inhibition was determined by compound inhibitory potency against IFNγ secretion compared to vehicle treated cells. Data is the average from 4 donors.

In series [4] the test system is IL-27 induced CXCL9 secretion. The series is described as follows: Inhibition of IL-27 induced CXCL9 in human 3D airway cultures. The format is cell-based. The settings on record: 192 h, 8 days, 4 donors. The method, then: as §1
Series [5] relates to IFNγ induced CXCL9 secretion. Briefly: Inhibition of IFNγ induced CXCL9 in human 3D airway cultures. The format is cell-based. To be noted: 192 h, 8 days, 4 donors. The method, then:
as §1

The next series can be described thus: Lung S9 metabolism. The format is in vitro ADME, human. As to the method:
The time 0, 15, 30, and 60 minute samples were analyzed for parent compound by high resolution LC-MS/MS. Lung S9 fractions from human (lot 1410245) were purchased from XenoTech LLC (Lenexa, Kans.). NADPH (Sigma Aldrich, N1630) and 3-phosphoadenosine 5-phosphosulfate (PAPS) (Sigma Aldrich, A1651) were purchased from Sigma Aldrich (St. Louis, Mo.). Acetonitrile and water were obtained from VWR (Radnor, Pa.) and were of HPLC grade or better. Raloxifene and formic acid was purchased from Sigma Aldrich (St. Louis, Mo.). Lung S9 incubations were performed in a water bath at 37° C. in a 96-well polypropylene plate. […] Louis, Mo.), 3 mM magnesium chloride (Sigma Aldrich, M1028) and in the presence of 100 μM PAPS (Sigma-Aldrich, St. […] Incubation volumes consisted of 400 μL and time points were taken at 0, 15, 30, and 60 minutes by the removal of a 70 μL aliquot and dilution into 140 μL acetonitrile (0% formic acid). All samples were centrifuged at 2250 g for 10 minutes at 5° C. Supernatant […] was taken from the centrifuged samples and diluted into 100 μL HPLC water containing internal standard. The samples were run on a Dionex Ultimate 3000 Auto sampler and analyzed using a Thermo Q-Exactive High Resolution Mass Spectrometer (Thermo, Waltham, Mass.) in Full Scan mode in conjunction with an Atlantis T3 column 3 μM-2.1×50 mm (Waters Inc., 186003717). Mobile Phase A consisted of Water+0.2% formic acid and Mobile Phase B consisted of acetonitrile +0.2% formic acid. Peak integration was accomplished using Gubbs GMSU software (Gubbs Inc., Alpharetta, Ga.). For each sample, peak area ratios were calculated by dividing the analyte peak area by the internal standard peak area. For each incubation, the peak area ratios of the analytes in each t0 was set to 100%, and the peak areas ratios from the 60 minute samples were converted to percentages remaining relative to the corresponding t0. Determination of sulfate metabolite formation was made qualitatively by observation of early-eluting peak in the parent ion channel which, based on historical internal data, corresponded to the O-sulfate metabolite of each parent compound.

On to `CCc1cc(O)ccc1-c1ccc2c(-c3nc4c([nH]3)CN(C(C)C)[C@H](C(=O)N3CC(N(C)C)C3)C4)n[nH]c2c1` [Compound 1, (S)-(3-(dimethylamino)azetidin-1-yl)(2-(6-(2-ethyl-4-hydroxyphenyl)-1H-indazol-3-yl)-5-isopropyl-4,5,6,7-tetrahydro-3H-imidazo[4,5-c]pyridin-6-yl)methanone], for which the inhibition at 0.1 µM in series [1] (0.1 μM) is 18%; in series [3] (Homo sapiens, Lymphocyte, 120 h, 0.1 μM, 5 days, 4 donors), 43%; in series [4] (0.1 μM), 52%; in series [5] (0.1 μM), 16%. Moreover, the inhibition at 1 µM came out at 76% in series [1] (1 μM); 76% in series [3] (Homo sapiens, Lymphocyte, 120 h, printed "at μM" (middle concentration, 1 μM in the method), 5 days, 4 donors); 97% in series [4] (1 μM); 93% in series [5] (1 μM). The inhibition at 10 µM is 100% in series [1] (10 μM); 99% in series [3] (Homo sapiens, Lymphocyte, 120 h, 10 μM, 5 days, 4 donors); 100% in series [4] (10 μM); 100% in series [5] (10 μM). Further, in series [2], the “exposure in lung versus plasma (in words)” value is “significantly more exposure in the lung than exposure in plasma”. Moreover, the “inhibition of IFNγ secretion (in words)” value in series [3] (mixed lymphocyte reaction) is “effectively inhibit IFNγ secretion”. Moreover, the “Compound Remaining at 60 min (%)” value in the series “Lung S9 metabolism” (human lung S9, 1 μM compound, 1 mg/mL S9 protein, 60 min) was determined as 81%. In addition, in “Lung S9 metabolism” (human lung S9, qualitative O-sulfate metabolite peak), the “Sulfate Appearance” value is listed as “Yes”. In the series “Lung S9 metabolism” (human lung S9 fraction, pH 7.4, human lung S9, 1 μM compound, 1 mg/mL S9 protein, NADPH and PAPS, read-out: Clearance), the microsomal CLint at 1 µM was 3.5 µL/min/mg.

These data come from patent publication US10947229B2, “Dimethyl amino azetidine amides as JAK inhibitors” (THERAVANCE BIOPHARMA R&D IP, LLC, priority 2018, dated 2021).
